According to US7985751B2, “Piperazine derivatives” (M's Science Corporation, priority 2005, dated 2011):
Counter-ions that a name gives are not always drawn.

Assays:
[1] = test system: sigma receptor-mediated neck dystonia in rats; conditions: microinjection, Nakazawa M et al 1999; cited from earlier work
σ1 receptors = biological target: T1, σ1 receptors (Homo sapiens, UniProt Q99720); assay: σ1 receptor binding assay ((+)-[3H]pentazocine displacement, HEK-293 cell membranes); conditions: for affinity for sigma receptors, in particular sigma-1 receptors: result in words
T1 construct: incubating 50 μg of HEK-293 cell membranes with 10 nM (+)-[^3H]-pentazocine; endogenous in cells; host or cells: HEK-293
Procedure: (§1) Sigma 1 (σ1) and sigma 2 (σ2) receptor binding assays are carried out in membranes from HEK-293 (Human Embryonic Kidney) cells.
(§2) Confluent HEK-293 cells are harvested in PBS/5 mM EDTA. They are centrifuged at 2000 rpm for 5 min and then washed two times in PBS. Cells are homogenized in 20 mM Tris-HCL (pH=7.5) containing 5 mM EDTA, 0.5 mM PMSF and 0.5 μg/ml leupeptin using a Dounce homogenizer and sonicated for 5 minutes.
Nuclear debris and intact cells are removed by centrifugation at 3000 rpm for 10 minutes at 4° C. The supernatant is centrifuged at 12000 rpm for 30 minutes and the resulting pellet is resuspended in 25 mM Tris-HCL (pH=7.5), 25 mM Mg2Cl, 10% sucrose containing 0.5 mM PMSF, 2 mM AEBSF, 1 mM EDTA, 130 μM bestatin, 14 μM E-64, 1 μM leupeptin, and 0.3 mM aprotinin.
Proteins are determined using the Bio Rad Protein Assay Dye Reagent and the membranes are aliquoted and frozen at −80° C.
The binding assays are performed in 96-well plates.
σ1 receptors are labeled using the σ1 selective probe (+)-[^3H] Pentazocine (Bowen W D et al, Mol Neuropharmacol 3, 117-126, 1993).
Total binding is determined by incubating 50 μg of HEK-293 cell membranes with 10 nM (+)-[^3H]-pentazocine (Perkin-Elmer, 35 Ci/mmol) and assay buffer (50 mM Tris-HCl, pH=8.3) in a total volume of 200 μl. Non specific binding is determined in the presence of 10 μM unlabeled pentazocine. For competition experiments, 50 μl of displacing compound is added at 8 different concentrations. Incubations are carried out for 120 min at 37° C. Assays are terminated by dilution with ice-cold 10 mM Tris-HCl, pH=8.3 and vacuum filtration through glass fibers using a Skatron cell harvester from Molecular Devices. The filters are washed three times and the membrane-bound radioactivity is determined in a Microbeta scintillation counter.
Filters are soaked in 0.5% polyethyleneimine for 1 hour before use.
(§3) Specific binding is determined by subtraction of non specific binding from total binding. […]

σ2 receptors = biological target: T2, σ2 receptors (Homo sapiens, UniProt Q5BJF2); assay: σ2 receptor binding assay ([3H]DTG displacement with σ1 masked by pentazocine, HEK-293 cell membranes); conditions: σ1 versus σ2 binding, result in words
T2 construct: incubating 50 μg of HEK-293 cell membranes with 10 nM [^3H]-DTG; endogenous in cells; host or cells: HEK-293
Procedure: as §1, §2
Nuclear debris and intact cells are removed by centrifugation at 3000 rpm for 10 minutes at 4° C. […]
Proteins are determined using the Bio Rad Protein Assay Dye Reagent and the membranes are aliquoted and frozen at −80° C. […]
Total binding is determined by incubating 50 μg of HEK-293 cell membranes with 10 nM [^3H]-DTG (Perkin-Elmer, 58 Ci/mmol) in the presence of 10 μM pentazocine and assay buffer (50 mM Tris-HCl, pH=8.3) in a total volume of 200 μl. Non specific binding is determined in the presence of 10 μM unlabeled DTG. […] The filters are washed three times and the membrane-bound radioactivity is determined in a Microbeta scintillation counter. […]
as §3

T1 sequence (Q99720 whole entry): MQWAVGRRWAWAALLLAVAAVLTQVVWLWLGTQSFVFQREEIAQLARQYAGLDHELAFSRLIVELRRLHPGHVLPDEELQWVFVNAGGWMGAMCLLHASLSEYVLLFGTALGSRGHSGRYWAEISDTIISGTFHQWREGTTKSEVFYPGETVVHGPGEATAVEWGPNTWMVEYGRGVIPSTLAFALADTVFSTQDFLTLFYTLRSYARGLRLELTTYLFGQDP
T2 sequence (Q5BJF2 whole entry): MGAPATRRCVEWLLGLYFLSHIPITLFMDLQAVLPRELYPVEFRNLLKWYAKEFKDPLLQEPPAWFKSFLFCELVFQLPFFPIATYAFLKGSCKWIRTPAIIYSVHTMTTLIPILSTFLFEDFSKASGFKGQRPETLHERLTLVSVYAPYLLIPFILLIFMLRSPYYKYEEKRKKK

SMILES: COc1ccc(CCN2CCN(CCCc3ccccc3)CC2)cc1OC [SA-4503, 1-[2-(3,4-dimethoxyphenyl)ethyl]-4-(3-phenylpropyl)piperazine]
- induction of neck dystonia [1]: no effect

SMILES: Cc1ccccc1NC(=N)Nc1ccccc1C [DTG, 1,3-di-2-tolyl-guanidine]
- induction of neck dystonia [1]: induced neck dystonia

SMILES: Fc1ccccc1CCN1CCN(CCCc2ccccc2)CC1 [Example 4, 1-[2-(2-Fluorophenyl)ethyl]-4-(3-phenylpropyl)piperazine dihydrochloride]
- affinity for sigma receptors, in particular sigma-1 receptors (σ1 receptors): especially good
- selectivity for σ1 receptor over σ2 receptor (σ2 receptors): especially good

SMILES: COc1cc(CCN2CCN(CCCc3ccccc3)CC2)cc(OC)c1OC.Cl [1-[2-(3,4,5-trimethoxyphenyl)ethyl]-4-(3-phenylpropyl)piperazine hydrochloride]
- IC50 (σ1 receptors): < 300 nM
- affinity for sigma receptors, in particular sigma-1 receptors (σ1 receptors): high affinity
- selectivity for σ1 receptor over σ2 receptor (σ2 receptors): highly selective
